Patent US10961176B2, “Compound hexadecaphlorethol isolated from Ishige okamurae and use thereof” (Jeju National University Industry-Academic Cooperation …, priority 2018, dated 2021)

Columns and labels:
zebrafish embryos [1] = experiment: HdP toxicity in zebrafish embryo; assay type: in vivo; settings: 1 μg/ml or less HdP, exposed until 168 hours after fertilization
Procedure: Four days after fertilization, each of the embryos (n=15) was transferred to 12-well plates, each containing 950 μl of an embryo medium (distilled water containing 60 ppm salt) and 50 μl of HdP (0.01, 0.1, 1, and 10 μg/ml) and the viability of zebrafish embryos exposed to HdP for 168 hours after fertilization were measured.

[2] = test system: alloxan-treated adult zebrafish; experiment: Blood glucose level in alloxan-treated adult zebrafish; assay type: in vivo
Procedure: Wild-type adult zebrafish were treated for 1 hour with 2 mg/ml alloxan and then for 1 hour with 1% glucose in the absence of insulin. Subsequently, the reaction solution was exchanged with water in which the zebrafish were then left for 1 hour before treatment with HdP, metformin, or BAPTA-AM for 90 min. Thus, the experiment groups included a non-treated group, an alloxan-treated group (control), a group treated with alloxan and HdP (0.3 μg/g body weight), a group treated with alloxan and metformin (5 μg/g body weight), a group treated with alloxan and BAPTA-AM (3 μg/g body weight), and a group treated with alloxan, BAPTA-AM (3 μg/g body weight), and HdP (0.3 μg/g body weight).

zebrafish embryos [3] = experiment: Intracellular calcium level in zebrafish embryo using Fluo-4; assay type: in vivo
Procedure: Intracellular calcium levels of zebrafish embryos were measured using a calcium-sensitive Fluo-4 probe. Embryos were incubated with Fluo-4 at 28.5±1° C. for 30 min before treatment with HdP (0.6, 3, and 6 μg/ml). In order to block the entry of calcium into cells, the embryos were reacted with the calcium chelator BAPTA-AM 0.1 mM for 1 hour before incubation with Fluo-4. The experiment groups included a non-treated group (N), a group treated with Fluo-4 alone (F), a group treated with HdP alone (0.6, 3, and 6 μg/ml), a group treated with Fluo-4 and HdP (0.6, 3, and 6 μg/ml), and a group treated with Fluo-4, BAPTA-AM, and HdP (6 μg/ml).

yeast α-glucosidase = experiment: Inhibitory activity against α-glucosidase; assay type: biochemical; settings: yeast enzyme, PNP-G substrate, pH 7.0, 37° C.; read-out: IC50 (concentration necessary for inhibiting the activity of α-glucosidase by 50%)
Procedure: Inhibitory activity against α-glucosidase was evaluated using a yeast enzyme according to the method of Watanabe et al. (Watanabe, Kawabata, Kurihara, & Niki, 1997). In the reaction condition of pH 7.0 and 37° C., 5 mM p-nitrophenyl α-D-glucopyranoside (PNP-G) serving as a substrate was reacted with a dilution of 32 mU/ml enzyme (yeast α-glucosidase, Sigma) in 100 mM phosphate buffer and inhibitory activity was measured using spectrophotometry. The sample was reacted with PNP-G for 5 min and the absorbance of 4-nitrophenol released upon the hydrolysis of PNP-G was read at 405 nm. Subsequently, the same amount of the substrate solution was added and reacted at room temperature for an additional five min., after which the reaction was stopped by adding 0.5 M Na2CO3. A change in absorbance at 405 nm was measured.
Inhibitory activity (%) against α-glucosidase was calculated according to the formula (1-absorbance of sample-added group/absorbance of solvent-added group)×100).
Acabose, which is an oral hypoglycemic agent inhibitory of α-glucosidase, was used as a positive control.

[4] = test system: differentiated myoblast C2C12 cells; experiment: Glucose uptake of C2C12 cells, 2-NBDG flow cytometry (FACS); assay type: cell-based, mouse; settings: treated with HdP for 24 hours, 2-NBDG fluorescence, dose-dependent
Procedure: The mouse-derived myoblast C2C12 cells (ATCC, Manassas, Va., USA) were suspended in DMEM (Dulbecco's Modified Eagle's Media) medium supplemented with 10% FBS and an antibiotic and cultured at 37° C. under a 5% CO2 atmosphere in an incubator. Upon 80% confluency, the C2C12 cells subjected to differentiation in a DMEM medium containing 2% horse serum and a low concentration of glucose for 5 days, with the medium freshly changed every three days. The differentiated cells were serum starved for 12 hours in serum free DMEM containing a low concentration of glucose, washed with PBS, and then reacted for 24 hours with the sample (HdP) in a fresh serum free DMEM.
Glucose uptake of mouse-derived myoblast C2C12 cells was measured using flow cytometry (FACS) according to the (2-(N-(7-nitrobenz-2oxa-1,3-diazol-4-yl)amino)-2-deoxyglucose (2-NBDG) assay method (Cell Death Dis. 2017 Oct. 5. 8 (10):e3078). The cultured cells were incubated with 10 μM 2-NBDG at 37° C. for 24 hours and then analyzed using BD FACS Cantoll (BD Biosciences, NJ, USA), with the fluorescence of 2-NBDG detected in a FITC channel.

## Oc1cc(O)cc(Oc2cc(O)c(Oc3c(O)cc(O)cc3Oc3cc(O)c(Oc4cc(O)cc(O)c4Oc4cc(O)cc(O)c4Oc4cc(O)cc(O)c4Oc4cc(O)c(Oc5c(O)cc(O)cc5Oc5c(O)cc(Oc6c(O)cc(Oc7c(O)cc(Oc8c(O)cc(Oc9c(O)cc(Oc%10c(O)cc(Oc%11c(O)cc(O)cc%11O)cc%10O)cc9O)cc8O)cc7O)cc6O)cc5O)c(O)c4)c(O)c3)c(O)c2)c1 [HdP, hexadecaphlorethol]
Zebrafish embryos [1]
  survival rate of zebrafish embryos: ≥ 90%
[2]; HdP 0.3 μg/g body weight, 90 min
  blood glucose level: significantly reduced
[2]; HdP 0.3 μg/g with BAPTA-AM 3 μg/g body weight
  blood glucose level, HdP plus BAPTA-AM versus alloxan plus BAPTA-AM: No significant differences
Zebrafish embryos [3]; Fluo-4, BAPTA-AM 0.1 mM and HdP 6 μg/ml
  intracellular Ca2+ level (Fluo-4 phosphorescence) with calcium chelator BAPTA-AM: phosphorescence decrease
Zebrafish embryos [3]; HdP 0.6, 3 and 6 μg/ml with Fluo-4, versus group treated with Fluo-4 alone
  intracellular Ca2+ level (Fluo-4 phosphorescence): significant increase
Yeast α-glucosidase
  IC50: 55 µM
[4]
  glucose uptake into differentiated C2C12 cells: significantly increase

## CN(C)C(=N)N=C(N)N [metformin, reference compound]
[2]; metformin 5 μg/g body weight, 90 min
  blood glucose level (effect compared with HdP): similar
